Source: patent publication US20230167467A1, “METHODS AND COMPOSITIONS FOR THE PRODUCTION OF ISOBUTENE” (University of Alaska Anchorage, priority 2020, published 2023)

System: Engineered strains of E. coli
Assay type: cell-based
[1] = after solvent exposure, vs positive control

SMILES: C=CC(C)CC (stereo not drawn) [3-methyl-1-pentene]
- expression of acid resistance genes (gad, adi families): downregulated
- expression of chaperone proteins groLS, spy, and dnaJK: highly upregulated
- expression of dihydroxyacetone kinase genes dhaKLM: upregulated
- expression of galactitol metabolism genes gatABD: upregulated
- expression of heat shock proteins and chaperones hslJORUV: increased
- expression of ibpAB and clpAB (protein protection and repair): increased
- expression of marABC (multiple antibiotic resistance): upregulated
- expression of nitrate reductase genes narGHJKP: upregulated
- expression of phage shock genes pspABCDE: highly upregulated
- change in expression of gene adiA [1]: −3.34 ± 0.90
- change in expression of gene adiC [1]: −4.45 ± 1.13
- change in expression of gene adiY [1]: −4.27 ± 0.72
- change in expression of gene bhsA [1]: 4.75 ± 0.60
- change in expression of gene bssR [1]: −0.03 ± 0.44
- change in expression of gene bssS [1]: 5.81 ± 0.84
- change in expression of gene clpA [1]: 3.44 ± 0.63
- change in expression of gene clpB [1]: 6.13 ± 0.69
- change in expression of gene clpP [1]: 2.17 ± 0.59
- change in expression of gene coaA [1]: −1.75 ± 0.90
- change in expression of gene coaD [1]: 0.47 ± 0.93
- change in expression of gene cspA [1]: −4.30 ± 0.58
- change in expression of gene cspB [1]: −3.27 ± 1.33
- change in expression of gene cspC [1]: −1.52 ± 0.93
- change in expression of gene cspD [1]: 3.11 ± 0.58
- change in expression of gene cspE [1]: 0.28 ± 0.63
- change in expression of gene cspF [1]: −2.49 ± 1.08
- change in expression of gene dhaK [1]: 3.88 ± 0.59
- change in expression of gene dhaL [1]: 3.17 ± 0.63
- change in expression of gene dnaJ [1]: 6.43 ± 0.69
- change in expression of gene dnaK [1]: 4.74 ± 0.66
- change in expression of gene fabA [1]: −0.23 ± 0.77
- change in expression of gene fabB [1]: 2.75 ± 0.66
- change in expression of gene fabD [1]: −0.87 ± 0.53
- change in expression of gene flgA [1]: −2.55 ± 1.64
- change in expression of gene flgB [1]: −5.95 ± 1.74
- change in expression of gene flgC [1]: −5.29 ± 2.06
- change in expression of gene flgD [1]: −5.38 ± 2.00
- change in expression of gene flgE [1]: −4.38 ± 1.24
- change in expression of gene flgF [1]: −3.45 ± 1.66
- change in expression of gene flgG [1]: −4.32 ± 1.57
- change in expression of gene flgH [1]: −3.08 ± 1.80
- change in expression of gene gabD [1]: −0.39 ± 1.37
- change in expression of gene gabP [1]: −0.55 ± 1.33
- change in expression of gene gabT [1]: −0.74 ± 1.35
- change in expression of gene gadA [1]: −3.97 ± 0.90
- change in expression of gene gadB [1]: −2.34 ± 0.85
- change in expression of gene gadC [1]: −1.88 ± 0.83
- change in expression of gene gadE [1]: −5.01 ± 0.68
- change in expression of gene gadW [1]: −5.73 ± 1.17
- change in expression of gene gadX [1]: −2.89 ± 0.58
- change in expression of gene gadY [1]: −4.81 ± 0.90
- change in expression of gene glpA [1]: 7.04 ± 0.87
- change in expression of gene glpB [1]: 4.86 ± 0.63
- change in expression of gene glpC [1]: 5.64 ± 0.80
- change in expression of gene groL [1]: 4.37 ± 0.57
- change in expression of gene groS [1]: 4.22 ± 0.50
- change in expression of gene hchA [1]: 2.03 ± 0.62
- change in expression of gene hslJ [1]: 1.02 ± 0.67
- change in expression of gene hslO [1]: 3.42 ± 0.64
- change in expression of gene hslR [1]: 3.19 ± 0.66
- change in expression of gene hslU [1]: 3.91 ± 0.56
- change in expression of gene hslV [1]: 3.66 ± 0.61
- change in expression of gene ibpA [1]: 9.84 ± 1.21
- change in expression of gene ibpB [1]: 11.65 ± 1.50
- change in expression of gene lhgO [1]: −1.08 ± 1.80
- change in expression of gene lipA [1]: 0.62 ± 0.61
- change in expression of gene lipB [1]: 1.26 ± 0.64
- change in expression of gene narG [1]: 0.67 ± 0.66
- change in expression of gene narH [1]: −0.40 ± 0.65
- change in expression of gene narI [1]: −2.41 ± 1.20
- change in expression of gene narJ [1]: −0.67 ± 0.73
- change in expression of gene narK [1]: 0.15 ± 0.90
- change in expression of gene potA [1]: −2.42 ± 0.82
- change in expression of gene potB [1]: −1.56 ± 1.33
- change in expression of gene potC [1]: −0.61 ± 1.22
- change in expression of gene pspA [1]: 10.50 ± 0.55
- change in expression of gene pspB [1]: 8.15 ± 0.68
- change in expression of gene rpoA [1]: 0.25 ± 0.44
- change in expression of gene rpoB [1]: 0.39 ± 0.40
- change in expression of gene rpoC [1]: 0.99 ± 0.39
- change in expression of gene rpoD [1]: 3.68 ± 0.70
- change in expression of gene rpoE [1]: −2.04 ± 0.63
- change in expression of gene rpoH [1]: 0.68 ± 0.52
- change in expression of gene rpoN [1]: −1.52 ± 0.50
- change in expression of gene rpoS [1]: −0.17 ± 0.48
- change in expression of gene rpoZ [1]: −1.17 ± 0.55
- change in expression of gene spy [1]: 3.35 ± 0.88
- change in expression of gene tatA [1]: −1.50 ± 0.52
- change in expression of gene tatB [1]: −1.06 ± 0.60
- change in expression of gene tatC [1]: −1.33 ± 1.12
- change in expression of gene tatD [1]: −2.62 ± 1.19
- change in expression of gene tatE [1]: −0.18 ± 0.65
- number of genes with significant changes in expression (vs control, Bon Ferroni corrected p-value<0.05): 540 genes
